# In PubChem BioAssay (NCI):
#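 Five concentrations, 48 hours, 96-well plates. At the TGI there is no net growth.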
# Experiments:
# Assay in all cases: inhibition of tumour cell growth, NCI panel, 48 h
# [1] = tested on: NCI-H460 lung
# [2] = tested on: NCI-H226 lung
# [3] = tested on: SNB-19 CNS
# [4] = tested on: OVCAR-4 ovarian
# [5] = tested on: RXF 393 renal
# [6] = tested on: NCI/ADR-RES ovarian
# [7] = tested on: MOLT-4 leukemia
# [8] = tested on: 786-0 renal
# [9] = tested on: MCF7 breast
# [10] = tested on: HOP-62 NSCLC
# [11] = tested on: A549 NSCLC
# [12] = tested on: PC-3 prostate
# [13] = tested on: RPMI-8226 leukemia
# [14] = tested on: LOX IMVI melanoma
# [15] = tested on: HCT-15 colon
# [16] = tested on: BT-549 breast
# [17] = tested on: K-562 leukemia
# [18] = tested on: SK-MEL-5 melanoma
# [19] = tested on: EKVX NSCLC
# [20] = tested on: ACHN renal
# [21] = tested on: SN12C renal
# [22] = tested on: SW-620 colon
# [23] = tested on: MDA-MB-435
# [24] = tested on: DU-145 prostate
# [25] = tested on: IGROV1 ovarian
# [26] = tested on: HS 578T breast
# [27] = tested on: HOP-92 NSCLC
# [28] = tested on: SF-295 CNS
# [29] = tested on: NCI-H23 lung
# [30] = tested on: HCT-116 colon
# [31] = tested on: CCRF-CEM leukemia
# [32] = tested on: UACC-257 melanoma
# [33] = tested on: TK-10 renal
# [34] = tested on: A498 renal
# [35] = tested on: UO-31 renal
# [36] = tested on: M14 melanoma
# [37] = tested on: SK-MEL-2 melanoma
# [38] = tested on: OVCAR-8 ovarian
# [39] = tested on: HL-60(TB) leukemia
# [40] = tested on: T-47D breast
# [41] = tested on: MDA-MB-231 breast
# [42] = tested on: OVCAR-3 ovarian
# [43] = tested on: UACC-62 melanoma
# [44] = tested on: SK-MEL-28 melanoma
# [45] = tested on: HCC-2998 colon
# [46] = tested on: U251 CNS
# [47] = tested on: SK-OV-3 ovarian
# [48] = tested on: SF-268 CNS
# [49] = tested on: SF-539 CNS
# [50] = tested on: KM12 colon
# [51] = tested on: COLO 205 colon
# [52] = tested on: CAKI-1 renal
# [53] = tested on: OVCAR-5 ovarian
# [54] = tested on: SR leukemia
# [55] = tested on: HT29 colon
# [56] = tested on: MDA-N
# [57] = tested on: NCI-H522 lung
# [58] = tested on: SNB-75 CNS
smiles,measurement,setting,value
C=C1CC2(CCOc3ccc(Cl)cc32)OC1=O (stereo not drawn),TGI,[1],12.6 µM
same,TGI,[2],11.2 µM
same,TGI,[3],32.6 µM
same,TGI,[4],4.33 µM
same,TGI,[5],10.7 µM
same,TGI,[6],24.6 µM
same,TGI,[7],8.29 µM
same,TGI,[8],7.13 µM
same,TGI,[9],6.16 µM
same,TGI,[10],22.7 µM
same,TGI,[11],29.3 µM
same,TGI,[12],10.6 µM
same,TGI,[13],9.35 µM
same,TGI,[14],8.88 µM
same,TGI,[15],4.26 µM
same,TGI,[16],2.75 µM
same,TGI,[17],> 31.5 µM
same,TGI,[18],14.2 µM
same,TGI,[19],21.5 µM
same,TGI,[20],15.4 µM
same,TGI,[21],22.1 µM
same,TGI,[22],5.44 µM
same,TGI,[23],14.1 µM
same,TGI,[24],27.4 µM
same,TGI,[25],21.2 µM
same,TGI,[26],23.4 µM
same,TGI,[27],12.4 µM
same,TGI,[28],21.5 µM
same,TGI,[29],19.5 µM
same,TGI,[30],6.98 µM
same,TGI,[31],53 µM
same,TGI,[32],20.1 µM
same,TGI,[33],17.5 µM
same,TGI,[34],30.2 µM
same,TGI,[35],11.2 µM
same,TGI,[36],11.1 µM
same,TGI,[37],6.29 µM
same,TGI,[38],16.5 µM
same,TGI,[39],8.84 µM
same,TGI,[40],32.3 µM
same,TGI,[41],20.1 µM
same,TGI,[42],7.52 µM
same,TGI,[43],26.1 µM
same,TGI,[44],23.3 µM
same,TGI,[45],40.3 µM
same,TGI,[46],22.5 µM
same,TGI,[47],26.2 µM
same,TGI,[48],16.1 µM
same,TGI,[49],0.976 µM
same,TGI,[50],28 µM
same,TGI,[51],6.16 µM
same,TGI,[52],15.4 µM
same,TGI,[53],23.4 µM
same,TGI,[54],12.2 µM
same,TGI,[55],24.2 µM
same,TGI,[56],17.9 µM
same,TGI,[57],3.42 µM
same,TGI,[58],16.3 µM
